From patent US20240208992A1, “MACROCYCLES AS CFTR MODULATORS” (Idorsia Pharmaceuticals Ltd, priority 2021, published 2024)

Biological target: human F508del-CFTR (Homo sapiens, UniProt P13569, DEL508-508)
Experiment: F508del-CFTR cell surface expression (corrector activity), DiscoveRx ß-galactosidase complementation chemiluminescence assay in recombinant U2OS cell line;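 further: U2OS cells co-expressing ProLink-tagged F508del-CFTR and a membrane-anchored enzyme acceptor, where more surface CFTR restores β-galactosidase activity measured by chemiluminescence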
Conditions: for EC50: EC50, F508del-CFTR cell surface expression, U2OS cells, 16h compound incubation, geomean values; for Emax: U2OS, in relation to Emax of corrector lumacaftor (=100%), arithmetic mean values

Sequence of human F508del-CFTR (P13569 with tags, fused parts or gaps DEL508-508): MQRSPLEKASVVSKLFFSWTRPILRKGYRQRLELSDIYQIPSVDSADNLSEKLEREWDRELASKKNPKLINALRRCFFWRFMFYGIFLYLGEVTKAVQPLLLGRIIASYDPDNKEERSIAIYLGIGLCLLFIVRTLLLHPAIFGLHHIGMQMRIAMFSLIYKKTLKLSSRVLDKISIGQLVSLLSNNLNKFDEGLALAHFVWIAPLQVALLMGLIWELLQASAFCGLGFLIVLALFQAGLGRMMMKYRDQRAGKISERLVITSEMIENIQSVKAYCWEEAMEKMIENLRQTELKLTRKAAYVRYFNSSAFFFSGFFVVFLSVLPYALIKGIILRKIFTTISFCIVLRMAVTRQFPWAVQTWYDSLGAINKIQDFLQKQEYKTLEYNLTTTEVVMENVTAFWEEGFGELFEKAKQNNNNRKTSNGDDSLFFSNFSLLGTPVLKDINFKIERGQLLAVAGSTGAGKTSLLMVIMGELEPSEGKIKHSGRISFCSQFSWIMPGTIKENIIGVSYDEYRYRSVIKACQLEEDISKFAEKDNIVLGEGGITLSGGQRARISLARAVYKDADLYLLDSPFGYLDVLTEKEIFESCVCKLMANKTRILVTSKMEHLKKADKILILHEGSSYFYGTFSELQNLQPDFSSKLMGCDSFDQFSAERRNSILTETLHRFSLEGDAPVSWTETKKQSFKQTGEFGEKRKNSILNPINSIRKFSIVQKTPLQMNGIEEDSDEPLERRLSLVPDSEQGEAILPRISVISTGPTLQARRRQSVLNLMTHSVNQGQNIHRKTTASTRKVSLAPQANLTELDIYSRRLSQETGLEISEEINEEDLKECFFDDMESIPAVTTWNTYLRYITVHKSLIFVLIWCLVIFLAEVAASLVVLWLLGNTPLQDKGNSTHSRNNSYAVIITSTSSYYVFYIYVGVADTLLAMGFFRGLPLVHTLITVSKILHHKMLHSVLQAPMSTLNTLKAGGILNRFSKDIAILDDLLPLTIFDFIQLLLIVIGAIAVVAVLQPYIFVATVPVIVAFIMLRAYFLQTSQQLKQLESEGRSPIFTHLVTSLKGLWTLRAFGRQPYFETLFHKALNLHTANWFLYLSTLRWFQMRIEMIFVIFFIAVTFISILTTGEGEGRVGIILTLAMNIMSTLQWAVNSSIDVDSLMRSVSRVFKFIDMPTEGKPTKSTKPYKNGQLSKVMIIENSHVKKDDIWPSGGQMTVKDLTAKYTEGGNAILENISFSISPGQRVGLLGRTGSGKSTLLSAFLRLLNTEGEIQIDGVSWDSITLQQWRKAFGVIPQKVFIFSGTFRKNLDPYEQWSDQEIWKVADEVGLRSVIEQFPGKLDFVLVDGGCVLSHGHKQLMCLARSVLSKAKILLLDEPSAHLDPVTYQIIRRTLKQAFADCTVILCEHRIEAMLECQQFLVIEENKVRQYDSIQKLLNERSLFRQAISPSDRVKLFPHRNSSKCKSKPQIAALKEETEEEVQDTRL

Row | SMILES | EC50 | Emax
1 | COc1nccc2c1C(=O)N[C@H](C(=O)NCCc1noc(C3CC3)n1)CC(=O)N(C)[C@@H](CC(C)C)C(=O)N(C)[C@H](CCc1nc(-c3ccccc3)no1)C(=O)N[C@H](Cc1ccccc1)CO2 [Example 571, (3R,6R,9S,13S)-3-benzyl-N-(2-(5-cyclopropyl-1,2,4-oxadiazol-3-yl)ethyl)-9-isobutyl-16-methoxy-7,10-dimethyl-5,8,11,15-tetraoxo-6-(2-(3-phenyl-1,2,4-oxadiazol-5-yl)ethyl)-2,3,4,5,6,7,8,9,10,11,12,13,14,15-tetradecahydropyrido[3,4-p][1]oxa[4,7,10,14]tetraazacycloheptadecine-13-carboxamide] | 47 nM | 347%
2 | COc1cccc(CCNC(=O)[C@@H]2CC(=O)N(C)[C@@H](CC(C)C)C(=O)N(C)[C@@H](C)C(=O)N[C@H](Cc3ccccc3)COc3cnc4ccccc4c3C(=O)N2)c1 [Example 572, (3S,7S,10S,13R)-13-benzyl-7-isobutyl-N-(3-methoxyphenethyl)-6,9,10-trimethyl-1,5,8,11-tetraoxo-1,2,3,4,5,6,7,8,9,10,11,12,13,14-tetradecahydro-[1]oxa[4,7,10,14]tetraazacycloheptadecino[17,16-c]quinoline-3-carboxamide] | 701 nM | 200%
3 | Cc1cc(CCNC(=O)[C@@H]2CC(=O)N(C)[C@@H](CC(C)C)C(=O)N(C)[C@H](C)C(=O)N[C@H](Cc3ccccc3)COc3cnc4ccccc4c3C(=O)N2)on1 [Example 573, (3S,7S,10R,13R)-13-benzyl-7-isobutyl-6,9,10-trimethyl-N-(2-(3-methylisoxazol-5-yl)ethyl)-1,5,8,11-tetraoxo-1,2,3,4,5,6,7,8,9,10,11,12,13,14-tetradecahydro-[1]oxa[4,7,10,14]tetraazacycloheptadecino[17,16-c]quinoline-3-carboxamide] | 423 nM | 306%
4 | CC(C)C[C@H]1C(=O)N(C)[C@H](C)C(=O)N[C@H](Cc2ccccc2)COc2cnc3ccccc3c2C(=O)N[C@H](C(=O)NCCc2cc(C3CC3)no2)CC(=O)N1C [Example 574, (3S,7S,10R,13R)-13-benzyl-N-(2-(3-cyclopropylisoxazol-5-yl)ethyl)-7-isobutyl-6,9,10-trimethyl-1,5,8,11-tetraoxo-1,2,3,4,5,6,7,8,9,10,11,12,13,14-tetradecahydro-[1]oxa[4,7,10,14]tetraazacycloheptadecino[17,16-c]quinoline-3-carboxamide] | 308 nM | 319%
5 | COc1nccc2c1C(=O)N[C@H](C(=O)NCCc1noc(C3CC3)n1)CC(=O)N(C)[C@@H](CC(C)C)C(=O)N(C)[C@@H](CCc1nc(-c3ccccc3)no1)C(=O)N[C@H](Cc1ccccc1)CO2 [Example 577, (3R,6S,9S,13S)-3-benzyl-N-(2-(5-cyclopropyl-1,2,4-oxadiazol-3-yl)ethyl)-9-isobutyl-16-methoxy-7,10-dimethyl-5,8,11,15-tetraoxo-6-(2-(3-phenyl-1,2,4-oxadiazol-5-yl)ethyl)-2,3,4,5,6,7,8,9,10,11,12,13,14,15-tetradecahydropyrido[3,4-p][1]oxa[4,7,10,14]tetraazacycloheptadecine-13-carboxamide] | 600 nM | 268%
6 | Cc1cc(CCNC(=O)[C@@H]2CC(=O)N(C)[C@@H](CC(C)C)C(=O)N(C)[C@H](CCOCc3ccccc3)C(=O)N[C@H](Cc3ccccc3)COc3cnc4ccccc4c3C(=O)N2)on1 [Example 578, (3S,7S,10R,13R)-13-benzyl-10-(2-(benzyloxy)ethyl)-7-isobutyl-6,9-dimethyl-N-(2-(3-methylisoxazol-5-yl)ethyl)-1,5,8,11-tetraoxo-1,2,3,4,5,6,7,8,9,10,11,12,13,14-tetradecahydro-[1]oxa[4,7,10,14]tetraazacycloheptadecino[17,16-c]quinoline-3-carboxamide] | 53 nM | 319%
7 | Cc1cc(CCNC(=O)[C@@H]2CC(=O)N(C)[C@@H](CC(C)C)C(=O)N(C)[C@@H](CCOCc3ccccc3)C(=O)N[C@H](Cc3ccccc3)COc3cnc4ccccc4c3C(=O)N2)on1 [Example 579, (3S,7S,10S,13R)-13-benzyl-10-(2-(benzyloxy)ethyl)-7-isobutyl-6,9-dimethyl-N-(2-(3-methylisoxazol-5-yl)ethyl)-1,5,8,11-tetraoxo-1,2,3,4,5,6,7,8,9,10,11,12,13,14-tetradecahydro-[1]oxa[4,7,10,14]tetraazacycloheptadecino[17,16-c]quinoline-3-carboxamide] | 399 nM | 131%
8 | COc1cc(CCNC(=O)[C@@H]2CC(=O)N(C)[C@@H](CC(C)C)C(=O)N3CCC4(CC4)C[C@@H]3C(=O)N[C@H](Cc3ccccc3)COc3cc(C)nc(OC)c3C(=O)N2)on1 [Example 580, (7′S,11′S,17a′R,20′R)-20′-benzyl-11′-isobutyl-4′-methoxy-N-(2-(3-methoxyisoxazol-5-yl)ethyl)-2′,10′-dimethyl-5′,9′,12′,18′-tetraoxo-5′,6′,7′,8′,9′,10′,11′,12′,14′,15′,17′,17a′,18′,19′,20′,21′-hexadecahydrospiro[cyclopropane-1,16′-dipyrido[2,1-f:3′,4′-p][1]oxa[4,7,10,14]tetraazacycloheptadecine]-7′-carboxamide] | 198 nM | 319%
9 | [2H]C([2H])([2H])Oc1nc(C)cc2c1C(=O)N[C@H](C(=O)NCCc1cc(OC)no1)CC(=O)N(C)[C@@H](CC(C)C)C(=O)N1CCCC[C@@H]1C(=O)N[C@H](Cc1ccccc1)CO2 [Example 581, (7S,11S,17aR,20R)-20-benzyl-11-isobutyl-4-(methoxy-d3)-N-(2-(3-methoxyisoxazol-5-yl)ethyl)-2,10-dimethyl-5,9,12,18-tetraoxo-5,6,7,8,9,10,11,12,15,16,17,17a,18,19,20,21-hexadecahydro-14H-dipyrido[2,1-f:3′,4′-p][1]oxa[4,7,10,14]tetraazacycloheptadecine-7-carboxamide] | 300 nM | 303%
10 | COc1cc(CCNC(=O)[C@@H]2CC(=O)N(C)[C@@H](CC(C)C)C(=O)N(CCC3CCCCC3)CC(=O)N[C@H](Cc3ccccc3)COc3ccnc(OC)c3C(=O)N2)on1 [Example 582, (3R,9S,13S)-3-benzyl-7-(2-cyclohexylethyl)-9-isobutyl-16-methoxy-N-(2-(3-methoxyisoxazol-5-yl)ethyl)-10-methyl-5,8,11,15-tetraoxo-2,3,4,5,6,7,8,9,10,11,12,13,14,15-tetradecahydropyrido[3,4-p][1]oxa[4,7,10,14]tetraazacycloheptadecine-13-carboxamide] | 116 nM | 279%
11 | Cc1ccc2c(c1)OC[C@@H](Cc1ccccc1)NC(=O)CN(C)C(=O)[C@H](CC(C)C)N(C)C(=O)C[C@@H](C(=O)NCCc1ccc3c(c1)OCO3)NC2=O [Example 583, (3R,9S,13S)-N-(2-(benzo[d][1,3]dioxol-5-yl)ethyl)-3-benzyl-9-isobutyl-7,10,18-trimethyl-5,8,11,15-tetraoxo-2,3,4,5,6,7,8,9,10,11,12,13,14,15-tetradecahydrobenzo[p][1]oxa[4,7,10,14]tetraazacycloheptadecine-13-carboxamide] | 339 nM | 90%
12 | COc1cccc(CCNC(=O)[C@@H]2CC(=O)N(C)[C@@H](CC(C)C)C(=O)N3CC[C@@H](C3)C(=O)N[C@H](Cc3ccccc3)COc3ccc(OC)cc3C(=O)N2)c1 [Example 584, (13S,4R,10S,14S)-4-benzyl-14-isobutyl-74-methoxy-N-(3-methoxyphenethyl)-13-methyl-2,8,12,15-tetraoxo-6-oxa-3,9,13-triaza-1(3,1)-pyrrolidina-7(1,2)-benzenacyclopentadecaphane-10-carboxamide] | 575 nM | 156%
13 | COc1cc2c(cc1OC)C(=O)N[C@H](C(=O)NCCc1ccc3c(c1)OCO3)CC(=O)N(C)[C@@H](CC(C)C)C(=O)N(CCC1CCCCC1)CC(=O)N[C@H](Cc1ccccc1)CO2 [Example 585, (3R,9S,13S)-N-(2-(benzo[d][1,3]dioxol-5-yl)ethyl)-3-benzyl-7-(2-cyclohexylethyl)-9-isobutyl-17,18-dimethoxy-10-methyl-5,8,11,15-tetraoxo-2,3,4,5,6,7,8,9,10,11,12,13,14,15-tetradecahydrobenzo[p][1]oxa[4,7,10,14]tetraazacycloheptadecine-13-carboxamide] | 176 nM | 168%
14 | COc1cccc(CCNC(=O)[C@@H]2CC(=O)N(C)[C@@H](CC(C)C)C(=O)N(CCC3CCCCC3)CC(=O)N[C@H](Cc3ccccc3)COc3cc(OC)c(OC)cc3C(=O)N2)c1 [Example 586, (3R,9S,13S)-3-benzyl-7-(2-cyclohexylethyl)-9-isobutyl-17,18-dimethoxy-N-(3-methoxyphenethyl)-10-methyl-5,8,11,15-tetraoxo-2,3,4,5,6,7,8,9,10,11,12,13,14,15-tetradecahydrobenzo[p][1]oxa[4,7,10,14]tetraazacycloheptadecine-13-carboxamide] | 221 nM | 165%
15 | COc1cccc(CCNC(=O)[C@@H]2CC(=O)N(C)[C@@H](CC(C)C)C(=O)N3CCCC[C@@H]3C(=O)N[C@H](Cc3ccccc3)COc3ccc(OC)cc3C(=O)N2)c1 [Example 587, (7S,11S,20R,22aR)-20-benzyl-7-isobutyl-15-methoxy-N-(3-methoxyphenethyl)-8-methyl-6,9,13,22-tetraoxo-1,3,4,6,7,8,9,10,11,12,13,19,20,21,22,22a-hexadecahydro-2H-benzo[p]pyrido[2,1-f][1]oxa[4,7,10,14]tetraazacycloheptadecine-11-carboxamide] | 414 nM | 106%
16 | COc1cccc(CCNC(=O)[C@@H]2CC(=O)N(C)[C@@H](CC(C)C)C(=O)N3CCOC[C@@H]3C(=O)N[C@H](Cc3ccccc3)COc3ccc(OC)cc3C(=O)N2)c1 [Example 588, (7S,11S,20R,22aR)-20-benzyl-7-isobutyl-15-methoxy-N-(3-methoxyphenethyl)-8-methyl-6,9,13,22-tetraoxo-1,3,4,6,7,8,9,10,11,12,13,19,20,21,22,22a-hexadecahydrobenzo[p][1,4]oxazino[3,4-f][1]oxa[4,7,10,14]tetraazacycloheptadecine-11-carboxamide] | 650 nM | 102%
